Point of comparison: `c1ccc(-c2nnc3cc(-c4cccnc4)c(OCc4ccccn4)nn23)cc1`, melting point 206 °C. Against it:
- N#Cc1ncn2c1[C@@H]1CCN1C(=O)c1c-2ccc(F)c1Cl — higher, 225 to 228 °C
- CSc1cc2n(c(=O)n1)C(c1ccccc1)N=C2 (stereo not drawn) — lower, 198 to 199 °C
- CCOC(=O)C1=C(C)Nc2nc(N3CCOCC3)nc(N3CCOCC3)c2C1c1cccc2nonc12 (stereo not drawn) — higher, 234 °C
- COC(=O)c1ccc(N2CCCC2)c(NC(=O)C(CSC(C)=O)Cc2ccccc2)c1 (stereo not drawn) — lower, 72 to 75 °C
- O=CC1=C(c2ccc(Cl)c(Cl)c2)C2CCC1CC2 — lower, 71 to 71.5 °C
- N=C(N)Nc1nc(-c2cccc([N+](=O)[O-])c2)no1 — higher, 290 to 291 °C
- O=C1NCCN1c1ccc(C(F)(F)F)cc1 — lower, 169 to 171 °C
- O=C(Nc1ccc2[nH]c(=O)n(CCCCN3CC=C(c4ccccc4)CC3)c(=O)c2c1)C(F)(F)F — higher, 245 °C
- Cn1c2ccc(Cl)cc2c2c(CC(=O)N3CCCC3)nn(-c3ccccc3)c(=O)c21 — higher, 261 to 262 °C
- C#Cc1ncn2c(C(F)(F)F)cc(-c3ccc(C(F)(F)F)cc3)nc12 — lower, 163 °C
- O=C(NC1CCC(CCN2CCC(c3cccc4c3CCO4)CC2)CC1)C1CCCO1 (racemic) — lower, 160 °C
- CCOC(=O)CC1CCC(CCNS(=O)(=O)c2ccc(Br)cc2)CC1 (stereo not drawn) — lower, 62 °C
- Cc1c(NC(=O)c2ccc(OCc3ccc(F)cc3)cc2)ccc2cc(CN3CCCCC3)cnc12 — lower, 159 to 160 °C
- CC(C)(C)OC(=O)c1ccc(CN(CCc2ccccc2)C(=O)OC(C)(C)C)c(N)c1 — lower, 105 to 106 °C
- OC1CSC(Oc2cccnc2-c2ccncc2)C(O)C1O (stereo not drawn) — lower, 129 °C
- O=C(CCN1CCN(c2cccc(C(F)(F)F)c2)CC1)c1ccc2c(c1)Cc1cc(C(=O)CCN3CCN(c4cccc(C(F)(F)F)c4)CC3)ccc1O2 — lower, 155 to 157 °C
- Clc1ncccc1-c1cccnc1 — lower, 92 to 93.5 °C
- Nc1c([N+](=O)[O-])cc(Br)c2c1CN(CCc1ccccc1)CC2 — lower, 120 to 122 °C
- CC(=O)Nc1nc(CCc2ccc(CCl)cc2)cs1 — lower, 145 to 146 °C
- COC(=O)C1CCCN(C(=O)OC(C)(C)C)C1 (stereo not drawn) — lower, 47.5 to 48.5 °C
- CCCn1c(=O)c(N=O)c(N)n(Cc2ccccc2)c1=O — higher, 208 to 212 °C
- O=C(Cc1ccc(Br)cc1)c1ccc(Cl)cc1Cl — lower, 69 to 70 °C
- Cn1cc(-c2cc(-c3ccc(N)nc3)ccn2)n(-c2ccc(C(C)(C)C#N)cc2)c1=O — higher, 252 °C
- Cc1[nH]c(C(=O)C(Cl)(Cl)Cl)c2c1-c1ccc(Cl)cc1C(c1ccccc1F)=NC2 — higher, 222 to 225 °C
- COc1ccc(C(=O)N2c3ccccc3C(n3c4ccccc4c4ccccc43)CC2CCCCCN(C)C)cc1OC (stereo not drawn) — lower, 198 to 200 °C
- COc1ncccc1NC(=NC#N)NC(NC(=O)c1cc(F)cc(F)c1)C(C)(Cl)Cl (stereo not drawn) — lower, 125 to 126 °C
- CCC1c2c(C#N)ncn2-c2cnc(Nc3ccc(C(=O)NC4CCN(C5CCN(CC(C)C)CC5)CC4)cc3OC)nc2N1C(C)C (stereo not drawn) — lower, 165 to 170 °C
- COc1ccc2c(=O)c(C(N)=O)cn(C)c2c1 — higher, 304 to 306 °C
- Fc1ccc(-c2cc(N3CCN(CC4CC4)CC3)nc3c2CCCCCC3)cc1 — lower, 109 to 110 °C
- O=C(O)CCCOc1cc(-c2ccccc2)nc2ccccc12 — higher, 264 °C
- CC1CCc2c(N3CCNCC3)ccc3c2N1C=C(C(=O)O)C3 (stereo not drawn) — higher, 264 to 265 °C
- CCn1nc(-c2ccc(F)cc2)c(-c2ccncc2)c1C(=O)N(C)Cc1ccccc1 — lower, 148 to 149 °C
- COC(=O)c1cc(-c2ccccc2)c(=O)n2ncc3ccccc3c12 — lower, 174 to 175 °C
- Cc1nc(S)c2[nH]cnc2n1 — higher, > 300 °C
- CC(C(=O)NC(C)(C)C)c1cc(Cl)ccc1C(=O)O (stereo not drawn) — lower, 175 to 178 °C
- O=S(=O)(Nc1ccccc1O)c1ccc(Cl)cc1 — lower, 82 °C
- COC(=O)Nc1cc(OS(=O)(=O)c2ccc(C)cc2)nc(N)n1 — lower, 188 to 190 °C
- O=C(CCCC(c1cc(F)ccc1F)S(=O)(=O)c1ccc(Cl)cc1)N1CCCC1 (stereo not drawn) — lower, 125 to 126 °C
- CN(C)Cc1ccnc(CSCCNc2ncc(Cc3ccn(C)c(=O)c3)c(=O)[nH]2)c1 — lower, 137 to 139 °C
- Nc1ccc(C(=O)OCCCN2CCOCC2)c(N)c1 — lower, 96 °C
- Cc1cc(N2CCN(CCOc3ccccc3)C2=O)sc1C(=O)NCc1cccnc1 — lower, 78 to 80 °C
- O=C1NC(=S)SC1=Cc1ccc2c(c1)N(OCc1ccc(Cl)c(Cl)c1)C(=O)CO2 — higher, > 300 °C
- CCN(C(=O)N(C)C)c1nnc(S(=O)(=O)N(C)C)s1 — lower, 75 to 77 °C
- Cn1cnc(S(=O)(=O)NCCCN2CCOCC2)c1 — lower, 148 to 149 °C
- COc1cc2c3c4c(c(-c5ccccc5Cl)cc3n(C)c2cc1OCc1ccccc1)C(=O)NC4=O — higher, 282 to 285 °C
- Cc1sc(C)c2c1CCC=C2c1c[nH]cn1 — lower, 179 to 180 °C
- O=C1c2ccccc2C(=O)c2c(NC(=O)[C@@H]3C[C@H]3c3ccccc3)ccc(NC(=O)[C@@H]3C[C@H]3c3ccccc3)c21 (relative stereo) — higher, 272 to 274 °C
- COCc1nc2cccc(C(=O)OC)c2n1Cc1ccc(-c2ccccc2-c2nnn[nH]2)cc1 — lower, 191 to 194 °C
- O=C(O)c1cccc(NCc2cccs2)c1C(=O)O — higher, 223 to 225 °C
- O=C1CC(Cl)C(=O)N1C1CCCCC1 (stereo not drawn) — lower, 63 to 64 °C
- CNC(=O)N(C)c1cc(C(C)(C)C)on1 — lower, 150 to 151 °C
- CCOCCc1c(O)n2c3c(=O)n(C)c(=O)n(C)c3nc2n(Cc2ccccc2)c1=O — lower, 156 to 158 °C
- Cc1oc2cc(NC(=O)C(=O)O)ccc2c(=O)c1C — higher, 234 to 240 °C
- CCCCN1C(=O)NC(Cc2ccccc2)C1=O (stereo not drawn) — lower, 143 °C
- CCCCCCCCCCCCCc1nnc(N)o1 — lower, 147 to 150 °C
- C=C(C)C(=O)Oc1c(Cc2cc(C)cc(C(C)(C)C)c2O)cc(C)cc1C(C)(C)C — lower, 144 to 146 °C
- COc1ccc2c(c1)[C@@H]1c3ccccc3N[C@@H]1C2 (relative stereo) — lower, 129 to 130 °C
- Cc1cccc(-c2[nH]c(C(C)C)nc2-c2ccc(F)c(-c3ccc(C(=O)NC4CCOCC4)cc3)c2)n1 — lower, 130 to 132 °C
- O=C1Nc2ccc(F)cc2C(C#CC2CC2)(C(F)(F)F)N1 (racemic) — lower, 155 °C
- CC(C)C1C(=O)C(c2ccc(S(C)(=O)=O)cc2)=C1c1ccccc1 (stereo not drawn) — lower, 98 °C
- CCOC(=O)c1cc([N+](=O)[O-])c(C(=O)O)cc1C(=O)O — lower, 189 to 191 °C
- Cc1oc2c(C=O)cccc2c1C — lower, 56 to 58 °C
- CCC(=O)OC(C)c1ccc(O)cc1 (single isomer, unassigned; (+)) — lower, 71 to 72 °C
- CCC(=O)Nc1snc(N(CC)CC)c1C#N — lower, 188 to 189 °C
- CCOC(=S)c1ccc2sc(CCl)c(C)c2c1 — lower, 95 to 96 °C
- CC(C)(C)OC(=O)NCCCCNC(=O)Cc1ccc2ccccc2c1 — lower, 102 °C
- CC(C)C(c1ccc(N)cc1)c1cccnc1 (stereo not drawn) — lower, 102 °C
- O=C(c1ccccc1)c1nc2cc(C(c3ccccc3)n3ccnc3)ccc2[nH]1 (stereo not drawn) — higher, 223 °C
- O=C(CCCl)NC(=O)Nc1cc(C(F)(F)F)cc(C(F)(F)F)c1 — lower, 175 °C
- O=C(c1ccc(O)cc1)c1cccc(O)c1 — lower, 200 to 201 °C
- Cc1cc(OCc2ccccc2)cc(OCc2cccc(OCc3ccc4ccccc4n3)c2)c1C(=O)O — lower, 146 to 149 °C
- COc1cc(C2C(=O)N(C)Cc3cc4c(cc32)OCCO4)cc(OC)c1OC (stereo not drawn) — lower, 148 to 149 °C
- CC(C)NC(=O)NC(C)(C)C(=O)NCCO[N+](=O)[O-] — lower, 120 to 122 °C
- CC(C)C(C(=O)O)N(Cl)Cl (stereo not drawn) — lower, 44 to 46 °C
- COc1ccc(-c2nc3cccc(C(=O)NC4CN5CCC4CC5)c3o2)cc1 (stereo not drawn) — lower, 166 to 167 °C
- Oc1ccc(-c2ncc3ncc(-c4ccccc4O)cc3n2)cc1 — higher, 278 to 279 °C
- O=C(c1ccccc1)C(Br)OCc1ccc(Cl)cc1Cl (stereo not drawn) — lower, 89 to 91 °C
- COc1ccc(C2(C#N)CCC(=O)CC2)c2c1OC(C)(C)O2 — lower, 153 to 154 °C
- CCC(C)(C)Nc1cccnc1N(C)C1CCN(C(=O)c2cc3cc([N+](=O)[O-])ccc3[nH]2)CC1 — not separable, 206 to 208 °C
- COc1ccc(CS(=O)(=O)c2cc3ccc(O)cc3oc2=O)cc1[N+](=O)[O-] — lower, 126 to 128 °C
- CC(=O)NC(C(=O)NC(C(=O)NC(Cc1ccccc1)C(O)C(Cc1ccccc1)NC(=O)C(NC(=O)C(NC(C)=O)C(C)C)C(C)C)C(C)C)C(C)C (stereo not drawn) — higher, 271 to 272 °C
- CCc1c(-c2ccc(OCc3ccccc3)cc2)c2c(C(=O)O)c(C(=O)O)c3c(OC)ccc1n32 — lower, 198 to 200 °C
- Cc1ncn(-c2ccccc2C#N)n1 — lower, 109 to 110 °C
- CCOC(=O)c1nc(N)nc(N)c1-c1ccc(Cl)cc1Cl — lower, 178 °C
- O=C(N[C@@H](Cc1ccccc1)C(=O)Nc1nncs1)OCc1ccccc1 — lower, 78 to 83 °C
- COc1ccc2c(-c3ccccc3)csc2c1 — lower, 58 to 59 °C
- Cn1c(=O)c2ccsc2n(CC2CC2)c1=O — lower, 75 to 77 °C
- CNC(=S)NC1CCCc2cc(C)cnc21 (stereo not drawn) — lower, 113 °C
- COc1ccc([C@@H]2Cc3cc(OC)ccc3NC(=O)[C@@H]2O)cc1 — lower, 171 to 173 °C
- O=C1C(c2ccccc2)=C(c2cccs2)C(=O)N1c1ccc(Cl)cc1 — lower, 176 to 177 °C
- O=C(CC1c2ccc(-c3ccccc3)cc2S(=O)(=O)N1c1ccccc1)NO (stereo not drawn) — lower, 191 to 193 °C
- C#CCOC(=O)C1=C(C)N(C)C(C)=C(C(=O)OCC#C)C1c1cccc(C(F)(F)F)c1 — lower, 163 °C
- CC(=O)NCOc1ccc(S(=O)(=O)N2C3CCC2CN(CC(=O)Nc2ccccc2C)C3)cc1 — not separable, 205 to 206 °C
- CCOc1ccc([N+](=O)[O-])c(Nc2ccc(OC)cc2)c1 — lower, 109 °C
- COc1ccc(-c2cccc3c2C2(COc4cc5c(cc42)OCCO5)C(=O)N3Cc2ccccn2)cc1 (stereo not drawn) — not separable, 205 to 206 °C
- C=Cn1c(C)c(C)c2cnnc(OCc3ccccc3)c21 — lower, 85 to 86 °C
- O=C1C(c2ccccc2)SCN1CCCCBr (stereo not drawn) — lower, 48 to 50 °C

Reference: a melting point compilation (Tetko et al.; mined from patent text by program, amines drawn as free bases though some values may be those of a salt)
